Assay [1] has as its target T1, human NLRP3 (Homo sapiens (Human), UniProt Q96P20). As to the kind of experiment: Human PBMC NLRP3 Assay (LPS priming, ATP stimulation, cytokine measurement). The class given is cell-based.
Assay [2] has as its target T1, human NLRP3. As to the kind of experiment: Scintillation Proximity (SPA) NLRP3 Assay: displacement of 3H-MCC950. In kind it is binding. To be noted: for IC50: read-out: SPA IC50.
Assay [3] deals with T1, human NLRP3. As to the kind of experiment: Human Whole Blood (hWB) NLRP3 Assay (LPS/ATP, IL-1β). In kind it is cell-based.
[4] abbreviates: human PBMC, LPS priming, ATP stimulation, read-out: PBMC IC50.
[5] abbreviates: human whole blood, LPS/ATP, IL-1β, read-out: hWB IC50.
Setting [6] is: PBMC IC50, human PBMC, LPS priming, ATP stimulation.
The mark [7] stands for this setting: hWB IC50, human whole blood, LPS/ATP, IL-1β.

T1 sequence (Q96P20 whole entry): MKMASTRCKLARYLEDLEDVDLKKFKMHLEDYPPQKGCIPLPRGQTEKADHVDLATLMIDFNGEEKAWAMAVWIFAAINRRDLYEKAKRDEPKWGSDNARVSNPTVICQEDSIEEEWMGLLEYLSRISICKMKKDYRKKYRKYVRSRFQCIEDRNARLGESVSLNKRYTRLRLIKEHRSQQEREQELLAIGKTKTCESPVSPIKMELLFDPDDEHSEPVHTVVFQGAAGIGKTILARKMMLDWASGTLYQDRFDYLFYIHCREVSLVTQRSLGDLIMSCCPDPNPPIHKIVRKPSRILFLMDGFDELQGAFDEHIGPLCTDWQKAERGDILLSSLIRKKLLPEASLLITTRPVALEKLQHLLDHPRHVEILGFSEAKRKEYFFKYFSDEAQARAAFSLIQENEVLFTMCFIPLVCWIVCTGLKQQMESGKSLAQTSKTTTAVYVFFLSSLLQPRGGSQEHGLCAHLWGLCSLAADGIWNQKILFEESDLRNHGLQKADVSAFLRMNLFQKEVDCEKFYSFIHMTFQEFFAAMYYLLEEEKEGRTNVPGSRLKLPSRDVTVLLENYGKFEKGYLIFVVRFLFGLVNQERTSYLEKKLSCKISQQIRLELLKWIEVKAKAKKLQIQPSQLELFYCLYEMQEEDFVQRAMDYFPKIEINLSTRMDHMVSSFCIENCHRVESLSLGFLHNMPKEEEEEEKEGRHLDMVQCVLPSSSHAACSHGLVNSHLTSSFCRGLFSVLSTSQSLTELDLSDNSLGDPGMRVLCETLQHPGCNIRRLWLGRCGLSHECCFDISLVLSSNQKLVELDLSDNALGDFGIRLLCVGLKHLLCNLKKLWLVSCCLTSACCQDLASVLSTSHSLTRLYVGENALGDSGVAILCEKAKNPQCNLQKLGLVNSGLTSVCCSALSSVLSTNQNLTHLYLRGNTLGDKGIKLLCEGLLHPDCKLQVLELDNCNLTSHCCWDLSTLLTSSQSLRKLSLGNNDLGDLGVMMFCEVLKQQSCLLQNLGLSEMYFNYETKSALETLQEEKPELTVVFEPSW

In the case of `C[C@@H]1CCN(c2nnn[nH]2)C[C@H](NC(=O)C2(c3ccc(Cl)c(F)c3O)CC2)C1` (single isomer, unassigned) [18A*, 1-(4-chloro-3-fluoro-2-hydroxyphenyl)-N-(5-methyl-1-(1H-tetrazol-5-yl)azepan-3-yl)cyclopropane-1-carboxamide], the IC50 (commonly the midpoint of a concentration-inhibition curve) on human NLRP3 [1] (setting [4]) is < 0.01 µM; on human NLRP3 [2] (displacement of 3H-MCC950) it was < 1 µM; on human NLRP3 [3] (setting [5]) it was < 1 µM.
With `C[C@@H]1CCN(c2nnn[nH]2)C[C@H](NC(=O)C2(c3ccc(OC(F)F)cc3)CC2)C1` (single isomer, unassigned) [58A*], the IC50 is 0.01 to 0.1 µM on human NLRP3 [1] (setting [4]), < 1 µM at human NLRP3 [2] (displacement of 3H-MCC950) and < 1 µM at human NLRP3 [3] (setting [5]).
Regarding `C[C@@H]1C[C@@H](NC(=O)C2(c3ccc(C(F)(F)F)cc3F)CC2)[C@H]2CC[C@@H]1N2c1nnn[nH]1` [84A*, 1-(2-fluoro-4-(trifluoromethyl)phenyl)-N-((1R,2R,4R,5S)-4-methyl-8-(1H-tetrazol-5-yl)-8-azabicyclo[3.2.1]octan-2-yl)cyclopropane-1-carboxamide], the IC50 on human NLRP3 [1] (setting [6]) was < 0.01 µM; at human NLRP3 [2] (displacement of 3H-MCC950), < 1 µM; at human NLRP3 [3] (setting [7]), < 1 µM.
As for `C[C@@H]1CCN(c2nnn[nH]2)C[C@H](NC(=O)C2(c3ccc(Cl)cc3F)CC2)C1` (single isomer, unassigned) [56A*], the IC50 on human NLRP3 [1] (setting [4]) is < 0.01 µM; on human NLRP3 [2] (displacement of 3H-MCC950), < 1 µM; at human NLRP3 [3] (setting [5]) it was 1 to 2 µM.
In the same order, the values of `C[C@@H]1CCN(c2nnn[nH]2)C[C@@H](NC(=O)C2(c3ccc(OC(F)(F)F)cc3O)CC2)C1` (single isomer, unassigned) [62B*] are 0.01 to 0.1 µM, < 1 µM and 1 to 2 µM.
For `C[C@@H]1CCN(c2nnn[nH]2)C[C@@H](NC(=O)C2(c3ccc(C(F)(F)F)cc3O)CC2)C1` (single isomer, unassigned) [63B*], the IC50 at human NLRP3 [1] (setting [4]) is 0.01 to 0.1 µM; on human NLRP3 [2] (displacement of 3H-MCC950), < 1 µM; at human NLRP3 [3] (setting [5]), < 1 µM.
On to `O=C(N[C@@H]1CCC[C@@H]2CC[C@H]1N2c1nnn[nH]1)C1(c2ccc(C(F)(F)F)cc2O)CC1` [88A*, N-((1R,2R,6R)-9-(1H-tetrazol-5-yl)-9-azabicyclo[4.2.1]nonan-2-yl)-1-(2-hydroxy-4-(trifluoromethyl)phenyl)cyclopropane-1-carboxamide], for which the IC50 is < 0.01 µM on human NLRP3 [1] (setting [6]), < 1 µM at human NLRP3 [2] (displacement of 3H-MCC950) and < 1 µM on human NLRP3 [3] (setting [7]).
Consider `C[C@@H]1CCN(c2nnn[nH]2)C[C@H](NC(=O)C2(c3ccc(C(F)(F)F)c(F)c3O)CC2)C1` (single isomer, unassigned) [31A*, 1-(3-fluoro-2-hydroxy-4-(trifluoromethyl)phenyl)-N-(5-methyl-1-(1H-tetrazol-5-yl)azepan-3-yl)cyclopropane-1-carboxamide], for which the IC50 was < 0.01 µM at human NLRP3 [1] (setting [4]), < 1 µM at human NLRP3 [2] (displacement of 3H-MCC950) and 2 to 3 µM on human NLRP3 [3] (setting [5]).
Regarding `C[C@@H]1CCN(c2nnn[nH]2)C[C@H](NC(=O)C2(c3ccc(C(F)(F)F)cc3O)CC2)C1` (single isomer, unassigned) [63A*], the IC50 at human NLRP3 [1] (setting [4]) was < 0.01 µM; at human NLRP3 [2] (displacement of 3H-MCC950), < 1 µM; at human NLRP3 [3] (setting [5]), < 1 µM.
In the case of `C[C@@H]1C[C@@H](NC(=O)C2(c3ccc(Cl)cc3)CC2)[C@H]2CC[C@@H]1N2c1nnn[nH]1` [80A*, 1-(4-chlorophenyl)-N-((1R,2R,4R,5S)-4-methyl-8-(1H-tetrazol-5-yl)-8-azabicyclo[3.2.1]octan-2-yl)cyclopropane-1-carboxamide], the IC50 against human NLRP3 [1] (PBMC IC50) was 0.01 µM; against human NLRP3 [1] (setting [6]), 0.01 to 0.1 µM; at human NLRP3 [2] (displacement of 3H-MCC950), < 1 µM; at human NLRP3 [2] it was 0.13 µM; at human NLRP3 [3] (setting [7]), < 1 µM; at human NLRP3 [3] (read-out: hWB IC50) it was 0.84 µM. Also, the “fold increase in potency as measured by PBMC IC50” value at human NLRP3 [1] (relative to Compound 46A) was 10 fold. For the same molecule, the “fold increase in binding activity (SPA IC50)” value at human NLRP3 [2] (relative to Compound 46A) amounted to 6.6 fold. Further, on human NLRP3 [3] (relative to Compound 46A), the “fold increase in potency as measured by hWB IC50” value was determined as 3 fold.
For the molecule `Cc1ccc(C2(C(=O)N[C@@H]3C[C@@H](C)[C@@H]4CC[C@H]3N4c3nnn[nH]3)CC2)cc1` [87A*, N-((1R,2R,4R,5S)-4-methy1-8-(1H-tetrazol-5-yl)-8-azabicyclo[3.2.1]octan-2-yl)-1-(p-tolyl)cyclopropane-1-carboxamide], the IC50 was 0.01 to 0.1 µM against human NLRP3 [1] (setting [6]), < 1 µM on human NLRP3 [2] (displacement of 3H-MCC950) and 1 to 2 µM at human NLRP3 [3] (setting [5]).
As to `C[C@@H]1CCN(c2nnn[nH]2)C[C@H](NC(=O)C2(c3ccc(Br)cc3)CC2)C1` (single isomer, unassigned) [59A*], the values for the IC50 at human NLRP3 [1] (setting [4]), on human NLRP3 [2] (displacement of 3H-MCC950) and on human NLRP3 [3] (setting [5]) were < 0.01 µM, < 1 µM and < 1 µM, respectively.
With `C[C@H]1C[C@@H](NC(=O)C2(c3ncc(C(F)(F)F)cc3O)CC2)CN(c2nnn[nH]2)C1` [Compound 25A, 1-(3-hydroxy-5-(trifluoromethyl)pyridin-2-yl)-N-((3R,5S)-5-methyl-1-(1H-tetrazol-5-yl)piperidin-3-yl)cyclopropane-1-carboxamide], the values for the IC50 on human NLRP3 [1] (setting [4]), at human NLRP3 [2] (displacement of 3H-MCC950) and on human NLRP3 [3] (setting [5]) were 0.1 to 0.5 µM, < 1 µM and > 3 µM, respectively.
In the same order, the values of `C[C@@H]1CCN(c2nnn[nH]2)C[C@H](NC(=O)C2(c3ccc(C(F)(F)F)c(F)c3)CC2)C1` (single isomer, unassigned) [66A*] are < 0.01 µM, < 1 µM and < 1 µM.
As to `C[C@@H]1CCN(c2nnn[nH]2)C[C@H](NC(=O)C2(c3ccc(OC(F)(F)F)c(F)c3O)CC2)C1` (single isomer, unassigned) [28A*, 1-(3-fluoro-2-hydroxy-4-(trifluoromethoxy)phenyl)-N-(5-methyl-1-(1H-tetrazol-5-yl)azepan-3-yl)cyclopropane-1-carboxamide], the IC50 at human NLRP3 [1] (setting [4]) is 0.01 to 0.1 µM; on human NLRP3 [2] (displacement of 3H-MCC950), < 1 µM; on human NLRP3 [3] (setting [5]) it was > 3 µM.
In the same order, the values of `Cc1c(Cl)ccc(C2(C(=O)N[C@@H]3C[C@H](C)CCN(c4nnn[nH]4)C3)CC2)c1O` (single isomer, unassigned) [21A*, 1-(4-chloro-2-hydroxy-3-methylphenyl)-N-(5-methyl-1-(1H-tetrazol-5-yl)azepan-3-yl)cyclopropane-1-carboxamide] are < 0.01 µM, < 1 µM and < 1 µM.
In the same order, the values of `O=C(N[C@@H]1CC[C@H]2CC[C@@H]1N2c1nnn[nH]1)C1(c2ccc(Cl)c(F)c2O)CC1` [76C*, N-((1S,2R,5S)-8-(1H-tetrazol-5-yl)-8-azabicyclo[3.2.1]octan-2-yl)-1-(4-chloro-3-fluoro-2-hydroxyphenyl)cyclopropane-1-carboxamide] are 0.1 to 0.5 µM, < 1 µM and 1 to 2 µM.
`C[C@@H]1C[C@@H](NC(=O)C2(c3ccc(SC(F)F)cc3)CC2)[C@H]2CC[C@@H]1N2c1nnn[nH]1` [85A*, 1-(4-((difluoromethyl)thio)phenyl)-N-((1R,2R,4R,5S)-4-methyl-8-(1H-tetrazol-5-yl)-8-azabicyclo[3.2.1]octan-2-yl)cyclopropane-1-carboxamide]: the IC50 was < 0.01 µM at human NLRP3 [1] (setting [6]), < 1 µM on human NLRP3 [2] (displacement of 3H-MCC950) and < 1 µM against human NLRP3 [3] (setting [7]).
As for `C[C@@H]1C[C@@H](NC(=O)C2(c3ccc(C(F)F)cc3)CC2)[C@H]2CC[C@@H]1N2c1nnn[nH]1` [86A*, 1-(4-(difluoromethyl)phenyl)-N-((1R,2R,4R,5S)-4-methy1-8-(1H-tetrazol-5-yl)-8-azabicyclo[3.2.1]octan-2-yl)cyclopropane-1-carboxamide], the IC50 at human NLRP3 [1] (setting [6]) is 0.01 to 0.1 µM; at human NLRP3 [2] (displacement of 3H-MCC950), < 1 µM; at human NLRP3 [3] (setting [7]) it was < 1 µM.

The values above are taken from patent US20260007684A1, “AMIDE DERIVATIVES FOR INHIBITING NLRP3 AND USES THEREOF” (Ventus Therapeutics U.S., Inc., priority 2023, published 2026).
